Data as given in the supplement of paper PMC5908809.

Key:
[1] = tested on: normal NK cells expanded with K562-aAPC; experiment: drug sensitivity score (DSS) (DSS units); higher = more sensitive; extreme values may be limits of the assay; settings: 72 h; IL-2 2.5 ng/mL
Method: (§1)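 Drug sensitivity and resistance testing on K562-aAPC-expanded normal NK cells: 5 concentrations (10-fold steps over a 10,000-fold range), 72 h at 37 °C, viability by CellTiter-Glo normalised to DMSO and benzethonium chloride controls; DSS from the fitted curve.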

[2] = tested on: normal primary NK cells, pool 2 (3 donors) (IL-2 2.5 ng/mL); experiment: as above; settings: 72 h
[3] = tested on: normal primary NK cells, pool 3 (3 donors) (IL-2 2.5 ng/mL); experiment: as above; settings: 72 h
IMC-1 (IL-2 20 ng/mL) [4] = experiment: as above; settings: 72 h
NK-YS (IL-2 2.5 ng/mL) [5] = experiment: as above; settings: 72 h
SNK-6 (IL-2 2.5 ng/mL) [6] = experiment: as above; settings: 72 h
[7] = tested on: normal primary NK cells, pool 1 (3 donors) (IL-2 2.5 ng/mL); experiment: as above; settings: 72 h
KHYG-1 (IL-2 2.5 ng/mL) [8] = experiment: as above; settings: 72 h
DERL-7 (IL-2 2.5 ng/mL) [9] = experiment: as above; settings: 72 h
YT (IL-2 2.5 ng/mL) [10] = experiment: as above; settings: 72 h
NKL (IL-2 2.5 ng/mL) [11] = experiment: as above; settings: 72 h
NK-92 (IL-2 2.5 ng/mL) [12] = experiment: as above; settings: 72 h
[13] = tested on: normal primary NK cells, pool 1 (3 donors), resting (IL-2 0 ng/mL); experiment: as above; settings: 72 h
KAI3 (IL-2 2.5 ng/mL) [14] = experiment: as above; settings: 72 h
[15] = tested on: normal NK cells expanded with K562-aAPC; experiment: percent inhibition of viability; higher = more inhibition; settings: 72 h, IL-2 2.5 ng/mL
Method: as §1

[16] = tested on: normal primary NK cells, pool 2 (3 donors) (IL-2 2.5 ng/mL); experiment: as above; settings: 72 h
[17] = tested on: normal primary NK cells, pool 3 (3 donors) (IL-2 2.5 ng/mL); experiment: as above; settings: 72 h
IMC-1 (IL-2 20 ng/mL) [18] = experiment: as above; settings: 72 h
NK-YS (IL-2 2.5 ng/mL) [19] = experiment: as above; settings: 72 h
SNK-6 (IL-2 2.5 ng/mL) [20] = experiment: as above; settings: 72 h
[21] = tested on: normal primary NK cells, pool 1 (3 donors) (IL-2 2.5 ng/mL); experiment: as above; settings: 72 h
KHYG-1 (IL-2 2.5 ng/mL) [22] = experiment: as above; settings: 72 h
DERL-7 (IL-2 2.5 ng/mL) [23] = experiment: as above; settings: 72 h
YT (IL-2 2.5 ng/mL) [24] = experiment: as above; settings: 72 h
NKL (IL-2 2.5 ng/mL) [25] = experiment: as above; settings: 72 h
NK-92 (IL-2 2.5 ng/mL) [26] = experiment: as above; settings: 72 h
[27] = tested on: normal primary NK cells, pool 1 (3 donors), resting (IL-2 0 ng/mL); experiment: as above; settings: 72 h
KAI3 (IL-2 2.5 ng/mL) [28] = experiment: as above; settings: 72 h

Cc1ccc(NC(=O)c2ccc(CN3CCN(C)CC3)cc2)cc1Nc1nc(-c2cccnc2)cs1 [Masitinib] (max concentration tested 10000 nM)
Settings | drug sensitivity score
DERL-7 (IL-2 2.5 ng/mL) [9] | 7.97
IMC-1 (IL-2 20 ng/mL) [4] | 5.34
KAI3 (IL-2 2.5 ng/mL) [14] | 5.72
KHYG-1 (IL-2 2.5 ng/mL) [8] | 6.29
NK-92 (IL-2 2.5 ng/mL) [12] | 4.64
NK-YS (IL-2 2.5 ng/mL) [5] | 7.84
NKL (IL-2 2.5 ng/mL) [11] | 5.08
SNK-6 (IL-2 2.5 ng/mL) [6] | 3.3
YT (IL-2 2.5 ng/mL) [10] | 6.67
[1] | 6.42
[2] | 4.61
[3] | 4.72
[7] | 5.41
[13] | 5.07

percent inhibition of viability [%]
Settings | 1 nM | 10 nM | 100 nM | 1000 nM | 10000 nM
DERL-7 (IL-2 2.5 ng/mL) [23] | -4.46 | 4.7 | -3.25 | 14.7 | 99.9
IMC-1 (IL-2 20 ng/mL) [18] | -6.41 | -3.52 | -8.01 | -3.09 | 100
KAI3 (IL-2 2.5 ng/mL) [28] | 0.17 | 0.29 | -11.5 | 2.65 | 96.5
KHYG-1 (IL-2 2.5 ng/mL) [22] | -4.84 | 3.44 | -1.97 | 5.87 | 97.8
NK-92 (IL-2 2.5 ng/mL) [26] | -1.64 | 6.19 | 1.77 | -11.2 | 96.5
NK-YS (IL-2 2.5 ng/mL) [19] | -1.57 | -2.35 | 1.86 | 14.4 | 98.2
NKL (IL-2 2.5 ng/mL) [25] | -13.2 | -15.1 | -14.2 | -3.8 | 96.7
SNK-6 (IL-2 2.5 ng/mL) [20] | 11 | 9.07 | -33.7 | -49.3 | 86.9
YT (IL-2 2.5 ng/mL) [24] | 0.22 | -0.59 | -2.17 | 8.04 | 97.5
[15] | -1.56 | -0.88 | -2.2 | 6.06 | 99.6
[16] | -10.8 | -9.27 | -8.85 | -5.72 | 90.7
[17] | -9.21 | -14.7 | -12.2 | -0.94 | 86.2
[21] | -9.84 | -12.7 | -4.81 | -1.08 | 98.6
[27] | -13.3 | -12 | 9.4 | -3 | 95.5

CC(C)(C)c1cc(NC(=O)Nc2ccc(-c3cn4c(n3)sc3cc(OCCN5CCOCC5)ccc34)cc2)no1 [Quizartinib] (max concentration tested 1000 nM)
Settings | drug sensitivity score
DERL-7 (IL-2 2.5 ng/mL) [9] | 2.22
IMC-1 (IL-2 20 ng/mL) [4] | 0
KAI3 (IL-2 2.5 ng/mL) [14] | 6.21
KHYG-1 (IL-2 2.5 ng/mL) [8] | 4.98
NK-92 (IL-2 2.5 ng/mL) [12] | 2.69
NK-YS (IL-2 2.5 ng/mL) [5] | 2.8
NKL (IL-2 2.5 ng/mL) [11] | 3.06
SNK-6 (IL-2 2.5 ng/mL) [6] | 0.72
YT (IL-2 2.5 ng/mL) [10] | 2.36
[1] | 0.13
[2] | 0
[3] | 0.01
[7] | 0
[13] | 0

percent inhibition of viability [%]
Settings | 0.1 nM | 1 nM | 10 nM | 100 nM | 1000 nM
DERL-7 (IL-2 2.5 ng/mL) [23] | 4.27 | 4.47 | 0.07 | 4.17 | 33.4
IMC-1 (IL-2 20 ng/mL) [18] | -3.97 | -4.91 | -0.67 | -2.42 | -27
KAI3 (IL-2 2.5 ng/mL) [28] | 0.8 | -2.84 | 2.67 | 15.2 | 68.6
KHYG-1 (IL-2 2.5 ng/mL) [22] | -4.77 | -6.69 | -1.59 | 7.07 | 69.5
NK-92 (IL-2 2.5 ng/mL) [26] | 4.94 | 6.77 | 3.37 | 9.08 | 32.8
NK-YS (IL-2 2.5 ng/mL) [19] | -4.56 | -6.94 | -2.6 | 3.09 | 45.4
NKL (IL-2 2.5 ng/mL) [25] | -4.32 | -4.59 | -3.22 | 6.3 | 40.2
SNK-6 (IL-2 2.5 ng/mL) [20] | 19.5 | -15.2 | -9.07 | -27.8 | 31.3
YT (IL-2 2.5 ng/mL) [24] | -3.18 | -4.77 | -2.32 | 8.06 | 28.5
[15] | -5.93 | -6.07 | -5.11 | 1.78 | 12
[16] | -4.07 | 3.45 | 0.79 | 8.48 | 5.08
[17] | -1.63 | 14.8 | 1.27 | -1.92 | 11.7
[21] | -1.34 | 14.2 | 4.45 | 6.54 | 7.43
[27] | 6.94 | 18.5 | 11.5 | 15.2 | 11.1

CCCCc1nc2cc(/C=C/C(=O)NO)ccc2n1CCN(CC)CC [Pracinostat] (max concentration tested 10000 nM)
Settings | drug sensitivity score
DERL-7 (IL-2 2.5 ng/mL) [9] | 21.4
IMC-1 (IL-2 20 ng/mL) [4] | 19.6
KAI3 (IL-2 2.5 ng/mL) [14] | 25.4
KHYG-1 (IL-2 2.5 ng/mL) [8] | 22.1
NK-92 (IL-2 2.5 ng/mL) [12] | 23.6
NK-YS (IL-2 2.5 ng/mL) [5] | 20.3
NKL (IL-2 2.5 ng/mL) [11] | 24.6
SNK-6 (IL-2 2.5 ng/mL) [6] | 20.1
YT (IL-2 2.5 ng/mL) [10] | 20.1
[1] | 21.7
[2] | 20.6
[3] | 19.9
[7] | 21.1
[13] | 22.5

percent inhibition of viability [%]
Settings | 1 nM | 10 nM | 100 nM | 1000 nM | 10000 nM
DERL-7 (IL-2 2.5 ng/mL) [23] | 1.33 | -8.53 | 21.4 | 100 | 100
IMC-1 (IL-2 20 ng/mL) [18] | -2.79 | 2.79 | 10 | 100 | 101
KAI3 (IL-2 2.5 ng/mL) [28] | -0.25 | 10.9 | 59.8 | 100 | 106
KHYG-1 (IL-2 2.5 ng/mL) [22] | 0.14 | -0.26 | 26.9 | 103 | 107
NK-92 (IL-2 2.5 ng/mL) [26] | 0.01 | -2.17 | 42.9 | 103 | 107
NK-YS (IL-2 2.5 ng/mL) [19] | -2.5 | 3.97 | 26.5 | 93.4 | 106
NKL (IL-2 2.5 ng/mL) [25] | -9.49 | 12.2 | 57 | 92.3 | 105
SNK-6 (IL-2 2.5 ng/mL) [20] | -6.98 | 1.26 | 17.8 | 96.5 | 100
YT (IL-2 2.5 ng/mL) [24] | 2.35 | -0.3 | 12.7 | 100 | 105
[15] | 1.37 | 8.83 | 23.6 | 100 | 101
[16] | -8.41 | -3.58 | 22.6 | 94.5 | 94.8
[17] | -9.56 | -4.29 | 13.1 | 97.8 | 98.9
[21] | -0.69 | -4.78 | 22.1 | 96.7 | 97.5
[27] | 0.06 | -6.1 | 49.2 | 86.2 | 90.8
